Experiments:
[1] = Diffusion of a fluorescent probe in swollen gelatin gel by FRAP; type: physicochemical
From the text: To assess the stability of DTPA[Gd(III)] in the gelatin coating, the diffusion of a fluorescence probe in gelatin was studied by the technique of fluorescence recovery after photobleaching (FRAP). The instrument and data analysis scheme are described in Kim, S. H. and Yu, H., J. Phys. Chem. 1992, 96, 4034, which is hereby fully incorporated by reference. Fluorescein was used as the fluorescence probe due, in part, to its molecular size being roughly the same as that of DTPA[Gd(III)].
The focus of the study was to examine the possible retardation effects of gelatin concentration and cross-link density on the diffusion, which was determined at room temperature, i.e., below the gel point of gelatin. The diffusion of fluorescein probe slows down with the increase of gelatin concentration. The diffusion coefficient decreases from 1.5×10-10 to 9×10-12 m2s−1 when the concentration of gelatin increases from 9% to 40%. […] Accordingly, the probe diffusion is more likely controlled by the concentration of gelatin rather than the cross-link density. On the other hand, the cross-link density may determine the swelling ratio of gelatin, i.e., the concentration of gelatin in aqueous solution. […]

[2] = MR visibility test of the functional gelatin coating on PE rod in saline and yogurt (Example 14); conditions: after soaking in water for 12 hours
Experimental: Samples having the above formulations were transferred to a glass tube and kept in a water bath at 35° C. A bare PE rod (5 cm in length) was then dipped into the solution, and then removed. The rod was then cooled to room temperature to allow chill-setting of the gelatin solution and to form the coating on the rod surface. The same procedure was repeated to overcoat additional layers of gel. The final dry thickness of gel-coating was about 60 μm.
The gelatin coatings were dried in air while being chemically cross-linked by BVSM. The dried and cross-linked samples were then soaked in distilled water for 12 hours. Soaking each sample in distilled water may remove the DTPA[Gd(III)] that was not physically or chemically constrained by the cross-linked network of gelatin overcoat. Because the DTPA[Gd(III)] complexes were not chemically linked to the gelatin chains, most of them would be expected to diffuse out of the coating when soaked in water, whereas some of DTPA[Gd(III)] may be confined by the crystal domains in gelatin or by hydrogen bonding between gelatin chains and DTPA. In any event, after the soaking, the gelatin coating was dried again in air before MRI test.
The MR visibility of the samples prepared as outlined above, was tested in two media: saline and yogurt. […]

O=C1OC2(c3ccc(O)cc3Oc3cc(O)ccc32)c2ccccc21 [fluorescein]
Fluorescence signal remaining in gelatin films ([1]; films soaked in water for 18 hours, including non-cross-linked films): still fluorescence signal

O=C([O-])CN(CCN(CC(=O)[O-])CC(=O)O)CCN(CC(=O)[O-])CC(=O)O.[Gd+3] [DTPA[Gd(III)], gadolinium-diethylene triamine pentaacetic acid]
Retention in the gelatin coating [2]: some fraction of DTPA[Gd(III)] remained in the gel

O=C(O)CN(CCN(CC(=O)O)CC(=O)O)CCN(CC(=O)O)CC(=O)O [DTPA, diethylenetriaminepentaacetic acid]
Time to diffuse out of the gelatin coating ([1]; coating thickness 60 μm, diffusion coefficient 9×10-12 m2s−1): about 67 seconds
